Structures can show the parent of a compound that is named as a salt. Where two headings read alike, the source gives them in different places.
What was measured:
STHdh^Q111 cells [1] = experiment: 384-well PI (propidium iodide) assay, protection from mHTT induced cell death; assay type: cell-based, mouse; conditions: compound titrations, serum deprived STHdh^Q111 cells
Procedure: The well-established STHdh^Q111 cell model for HD was employed to identify compounds that can protect neuronal cells from mHTT-dependent cell death. […] The propidium iodide (PI) readout enables an unbiased assessment of cell death by measuring an irreversible step that is common to all cytotoxic mechanisms.
The stress conditions for testing compounds involved incubation of the cells in serum-free medium at 37° C. and 5% CO2.
Prior to compound treatment, medium was removed and the cells washed once with PBS (pH=7.4) after which 45 μl of complete medium was added. Compounds in 5 μl complete medium were added to cells. […] Compounds in serum free medium (5 μl) were added and cells were incubated at 37° C. and 5% CO2.
Image analysis was carried out using the Multiwavelength Cell Scoring application in the MetaXpress software. The nuclear compartment was identified in Ch1 with a threshold intensity of 2,000 above background and the Texas Red compartment was identified in Ch2 with a threshold intensity of 20,000 above background.
For the analyses presented here the Percent Recovery was calculated from the Percent PI positive cells by:
[formula] where positive controls are the STHdh^Q7 cells, and negative controls are the STHdh^Q111 cells treated with DMSO
The LOPAC library was screened in the 384-well PI assay at 30, 10, and 3 μM.

[2] = system: PKA phosphorylated at threonine 197 (pPKA) in STHdh^Q111 cells; experiment: PKA activation assay (pPKA, high content analysis); assay type: cell-based, mouse; conditions: 24 h serum free conditions
Procedure: The pPKA levels were examined at 24 hours after serum free conditions since this was the condition where the protection of the compounds was measured.
Cells were treated as described for testing in the 384-well PI assay. […] Plates were blocked with 3% BSA in PBS and were incubated with rabbit anti-PKA (αβγ catalytic subunit; EP2606Y; phospho-T197, abcam, Cambridge Mass.) mAb overnight at 4° C. […] Image analysis was carried out using the Multiwavelength Translocation application in the MetaExpress software. The nuclear compartment was identified in Ch1 with a threshold intensity of 5,000 above background (the nuclear mask). The nuclear mask was eroded 1 μm to create the Inner region mask in Ch2. […] The cytoplasmic pKA was measured in a […] ring around the nuclear mask.

STHdh^Q111 cells [3] = assay type: cell-based; conditions: for toxicity / protection with or of the PKA inhibitor: STHdh^Q111 cells, PI assay conditions; for reduction in the level of protection compared to compound alone: co-incubation with 10 μM H89
[4] = system: pCREB in the nucleus of STHdh^Q111 cells; experiment: Nuclear pCREB high content analysis (surrogate marker for PKA activity); assay type: cell-based, mouse; conditions: 10 μM H89 co-incubated with protective compounds
Text: The concentrations used were chosen to be on plateau of their respective activity curves (see FIG. 3). […] Analysis is from triplicate samples run in four independent experiments (Error bars are +/−SE). T-test was used to assess changes in the percent recovery levels relative to the STHdh^Q111 cells treated with compound without H89. […] Analysis was from triplicate samples run in four independent experiments (Error bars are +/−SE). T-test was used to assess changes in the pCREB intensity relative to the STHdhQ111 cells treated with compound without H89.
H89 has been used extensively in the literature as a selective and potent inhibitor of PKA. If the protection from cell death by these compounds involved activation of PKA, then the addition of an inhibitor of PKA would be expected to reverse the protective effects of the compounds. […] Since the primary canonical mechanism of sodium nitroprusside is activation of PKG, and given that H89 is ˜10-fold selective for PKA over PKG, the absence of a marked effect with sodium nitroprusside is not unexpected. […] To confirm inhibition of PKA activity by H89 under the conditions of the PI assay, the levels of nuclear pCREB were measured using high content analysis. Consistent with the heterogeneity seen in the response of the STHdh^Q111 cells to protection by the compounds, a heterogeneous distribution of pCREB levels was also detected. […]

PKA = PKA (Homo sapiens, UniProt P17612); conditions: cited from earlier work
[5] = system: cAMP levels in STHdh^Q111 cells; experiment: cAMP Enzyme Immunoassay
cells expressing mHTT [6] = experiment: Example 2 screen of a larger mechanistically diverse chemical library for protection from mHTT-induced cytotoxicity
cells expressing mHTT [7] = system: cells expressing mHTT

## CN1[C@@H]2CC[C@H]1CC(OC(=O)c1c[nH]c3ccccc13)C2.Cl (stereo partly shown) [3-tropanyl-indole-3-carboxylate hydrochloride]
STHdh^Q111 cells [1]
  neuroprotective activity in the PI assay: confirmed neuroprotective activity

## C/C=C1\C(=O)C[C@H]2[C@@H]3CCC4=CC(=O)CC[C@]4(C)[C@H]3CC[C@]12C [(Z)-Gugglesterone]
STHdh^Q111 cells [1]
  neuroprotective activity in the PI assay: confirmed neuroprotective activity

## CC(=O)Nc1nnc(S(N)(=O)=O)s1 [Acetazolamide]
STHdh^Q111 cells [1]
  neuroprotective activity in the PI assay: did not protect

## C[C@H]1C[C@H]2[C@@H]3CCC4=CC(=O)C=C[C@]4(C)[C@@]3(Cl)[C@@H](O)C[C@]2(C)[C@@]1(O)C(=O)CO [Beclomethasone]
STHdh^Q111 cells [1]
  neuroprotective activity in the PI assay: confirmed neuroprotective activity

## CN1[C@@H]2CC[C@H]1C[C@@H](OC(c1ccccc1)c1ccccc1)C2 [Benztropine mesylate]
STHdh^Q111 cells [1]
  neuroprotective activity in the PI assay: confirmed neuroprotective activity
[2]
  cytoplasmic pPKA, concentration response: concentration-dependent increase
STHdh^Q111 cells [3]
  toxicity / protection with or of the PKA inhibitor: increased toxicity

## CCN[C@H]1CN(CCCOC)S(=O)(=O)c2sc(S(N)(=O)=O)cc21 [Brinzolamide]
STHdh^Q111 cells [1]
  neuroprotective activity in the PI assay: did not protect

## O=S(=O)(NCCNC/C=C/c1ccc(Br)cc1)c1cccc2cnccc12 [Combination H89]
STHdh^Q111 cells [3]
  toxicity / protection with or of the PKA inhibitor: no significant protection or toxicity
[4]
  levels of nuclear pCREB: decreased
PKA
  selectivity for PKA over PKG: ~10 fold

## CN1CCC(=C2c3ccccc3C=Cc3ccccc32)CC1 [Cyproheptadine hydrochloride]
STHdh^Q111 cells [1]
  neuroprotective activity in the PI assay: confirmed neuroprotective activity

## O=c1[nH]c2ccccc2n1CCCN1CCC(n2c(=O)[nH]c3cc(Cl)ccc32)CC1 [Domperidone]
STHdh^Q111 cells [1]
  neuroprotective activity in the PI assay: confirmed neuroprotective activity
STHdh^Q111 cells [3]
  reduction in the level of protection compared to compound alone: 56%

## CCN[C@H]1C[C@H](C)S(=O)(=O)c2sc(S(N)(=O)=O)cc21 [Dorzolamide]
STHdh^Q111 cells [1]
  neuroprotective activity in the PI assay: did not protect

## CCOc1ccc2nc(S(N)(=O)=O)sc2c1 [Ethoxzolamide]
STHdh^Q111 cells [1]
  neuroprotective activity in the PI assay: confirmed neuroprotective activity

## C[C@]12CCC(=O)C=C1CC[C@@H]1[C@@H]2[C@@H](O)C[C@@]2(C)[C@H]1CC[C@]2(O)C(=O)CO [Hydrocortisone]
STHdh^Q111 cells [1]
  neuroprotective activity in the PI assay: confirmed neuroprotective activity

## CCC(NC(C)C)C(O)c1ccc(O)c(O)c1 (stereo not shown) [Isotharine mesylate]
STHdh^Q111 cells [1]
  neuroprotective activity in the PI assay: confirmed neuroprotective activity
[2]
  cytoplasmic pPKA, concentration response: concentration-dependent increase
STHdh^Q111 cells [3]
  reduction in the level of protection compared to compound alone: 34%
[5]; 15 and 30 minutes, t-test vs DMSO
  statistical significance of change in cAMP levels: statistically significant increase

## CCCn1c(C)c(C(=O)c2cccc3ccccc23)c2ccccc21 [JWH-015]
STHdh^Q111 cells [1]
  neuroprotective activity in the PI assay: confirmed neuroprotective activity
Cells expressing mHTT [6]
  protection from mHTT-induced cytotoxicity in the screen: demonstrating protection

## Cc1c(OCC(F)(F)F)ccnc1C[S+]([O-])c1nc2ccccc2[nH]1 (stereo not shown) [Lansoprazole]
STHdh^Q111 cells [1]
  neuroprotective activity in the PI assay: confirmed neuroprotective activity

## O=C(O)c1nn(Cc2ccc(Cl)cc2Cl)c2ccccc12 [Lonidamine]
STHdh^Q111 cells [1]
  neuroprotective activity in the PI assay: confirmed neuroprotective activity

## CN1CCN(C2=Nc3ccccc3Oc3ccc(Cl)cc32)CC1 [Loxapine succinate]
STHdh^Q111 cells [1]
  neuroprotective activity in the PI assay: confirmed neuroprotective activity
[2]
  cytoplasmic pPKA, concentration response: concentration-dependent increase
STHdh^Q111 cells [3]
  reduction in the level of protection compared to compound alone: 52%

## Cc1cccc(CN2CCN(C(c3ccccc3)c3ccc(Cl)cc3)CC2)c1 (stereo not shown) [Meclizine]
STHdh^Q111 cells [1]
  neuroprotective activity in the PI assay: confirmed neuroprotective activity

## CN1CCN2c3ccccc3Cc3ccccc3C2C1 (stereo not shown) [Mianserin hydrochloride]
STHdh^Q111 cells [1]
  neuroprotective activity in the PI assay: confirmed neuroprotective activity
[2]
  cytoplasmic pPKA, concentration response: concentration-dependent increase
STHdh^Q111 cells [3]
  reduction in the level of protection compared to compound alone: 35%

## Cc1cccc(C(=O)NCN2CCN(c3ccccc3C#N)CC2)c1.O=C(O)/C=C\C(=O)O [PD 168,077 maleate]
STHdh^Q111 cells [1]
  neuroprotective activity in the PI assay: confirmed neuroprotective activity

## COc1ccc(Cc2nccc3cc(OC)c(OC)cc23)cc1OC [Papaverine hydrochloride]
STHdh^Q111 cells [1]
  neuroprotective activity in the PI assay: confirmed neuroprotective activity
[2]
  cytoplasmic pPKA, concentration response: less pronounced
STHdh^Q111 cells [3]
  reduction in the level of protection compared to compound alone: 55%

## C[C@]12C=CC(=O)C=C1CC[C@@H]1[C@@H]2[C@@H](O)C[C@@]2(C)[C@H]1CC[C@]2(O)C(=O)CO [Prednisolone]
STHdh^Q111 cells [1]
  neuroprotective activity in the PI assay: confirmed neuroprotective activity

## CN1CCN(c2ccc3ccccc3n2)CC1.O=C(O)/C=C\C(=O)O.O=C(O)/C=C\C(=O)O [Quipazine, N-methyl-, dimaleate]
STHdh^Q111 cells [1]
  neuroprotective activity in the PI assay: confirmed neuroprotective activity

## N.N.N.N.N.N.N.N.N.N.N.N.N.N.[Cl-].[Cl-].[Cl-].[Cl-].[Cl-].[Cl-].[O-2].[O-2].[Ru+3].[Ru+3].[Ru+4] [Ruthenium red]
STHdh^Q111 cells [1]
  neuroprotective activity in the PI assay: confirmed neuroprotective activity

## CNC(=O)COC(=O)N1CCC(CCc2ccc(Cl)cc2)CC1 [SA 57]
Cells expressing mHTT [7]
  protection from mHTT-induced cytotoxicity in the screen: demonstrating protection

## O=C(OCCN1CCCCC1)c1c[nH]c2ccccc12 [SB 203186]
STHdh^Q111 cells [1]
  neuroprotective activity in the PI assay: confirmed neuroprotective activity

## C[C@]12C=CC(=O)C=C1CC[C@H]1[C@@H]3C[C@@H](O)[C@](O)(C(=O)CO)[C@@]3(C)C[C@H](O)[C@@]12F [Triamcinolone]
STHdh^Q111 cells [1]
  neuroprotective activity in the PI assay: confirmed neuroprotective activity

## Cc1ccc(/C(=C\CN2CCCC2)c2ccccn2)cc1 [Triprolidine hydrochloride]
STHdh^Q111 cells [1]
  neuroprotective activity in the PI assay: confirmed neuroprotective activity

## Cc1c(C)c2c(c(C)c1O)CCC(C)(CN1CCN(c3cc(N4CCCC4)nc(N4CCCC4)n3)CC1)O2.Cl.Cl (stereo not shown) [U-83836 dihydrochloride]
STHdh^Q111 cells [1]
  neuroprotective activity in the PI assay: confirmed neuroprotective activity

## CCOC(=O)C1=C[C@]2(CC)CCCN3CCc4c(n1c1ccccc41)[C@@H]32 [Vinpocetine]
STHdh^Q111 cells [1]
  neuroprotective activity in the PI assay: confirmed neuroprotective activity

## O=C(CCCCCCC(=O)Nc1ccccc1)NO [Vorinostat]
STHdh^Q111 cells [1]
  neuroprotective activity in the PI assay: confirmed neuroprotective activity

## C=C[C@@]1(C)CC(=O)[C@]2(O)[C@@]3(C)[C@@H](O)CCC(C)(C)[C@@H]3[C@H](O)[C@H](OC(C)=O)[C@@]2(C)O1 [forskolin]
[5]; 15 minutes after compound treatment in the presence of serum
  increase in cAMP over the DMSO control: 250 fold

## Tetradecylthioacetic acid
STHdh^Q111 cells [1]
  neuroprotective activity in the PI assay: confirmed neuroprotective activity

## m-Iodobenzylguanidine hemisulfate
STHdh^Q111 cells [1]
  neuroprotective activity in the PI assay: confirmed neuroprotective activity
